One data set has as its system HL-60(TB). The experiment in a line: NCI IVCLSP growth inhibition (SRB), HL-60(TB). In kind it is cell-based, human. The settings on record: 48 h drug incubation. Here is the method:
(§1) FIG. 1 presents nine compounds that were tested using the National Cancer Institute (NCI) 60 human tumor cell lines. The cells lines, which represent leukemia, melanoma, and cancers of the lung, colon, brain, ovary, breast, prostate, and kidney, are listed in Table 1.
(§2) Compounds 1-9 were tested according to the NCI Developmental Therapeutics Program (DTP) In Vitro Cell Line Screening Project (IVCLSP). […] Methodology for testing under the IVCLSP is as follows: The human tumor cell lines of the cancer screening panel are grown in RPMI 1640 medium containing 5% fetal bovine serum and 2 mM L-glutamine. […]
(§3) Following drug addition, the plates are incubated for an additional 48 h at 37° C., 5% CO2, 95% air, and 100% relative humidity. […] Bound stain is subsequently solubilized with 10 mM trizma base, and the absorbance is read on an automated plate reader at a wavelength of 515 nm. […] Using the seven absorbance measurements [time zero, (Tz), control growth, (C), and test growth in the presence of drug at the five concentration levels (Ti)], the percentage growth is calculated at each of the drug concentrations levels. Percentage growth inhibition is calculated as: [(Ti−Tz)/(C−Tz)]×100 for concentrations for which Ti>/=Tz [(Ti−Tz)/Tz]×100 for concentrations for which Ti<Tz.
(§4) Three dose response parameters are calculated for each experimental agent. […]

The test system of the next data set is K-562. The experiment in a line: NCI IVCLSP growth inhibition (SRB), K-562. The data set is classed as cell-based, human. The settings on record: 48 h drug incubation. The procedure:
as §1, §2, §3, §4

The subject of the next data set is A549/ATCC. Description: NCI IVCLSP growth inhibition (SRB), A549/ATCC. The data set is classed as cell-based, human. Particulars: 48 h drug incubation. Here is the method:
as §1, §2, §3, §4

A further data set has as its system NCI-H226. Description: NCI IVCLSP growth inhibition (SRB), NCI-H226. In kind it is cell-based, human. Particulars: 48 h drug incubation. Here is the method:
as §1, §2, §3, §4

The subject of the next data set is NCI-H460. Description: NCI IVCLSP growth inhibition (SRB), NCI-H460. In kind it is cell-based, human. Particulars: 48 h drug incubation. The procedure:
as §1, §2, §3, §4

A further data set relates to SK-MEL-5. Description: NCI IVCLSP growth inhibition (SRB), SK-MEL-5. The data set is classed as cell-based, human. The settings on record: 48 h drug incubation. Here is the method:
as §1, §2, §3, §4

A further data set concerns UACC-257. The experiment in a line: NCI IVCLSP growth inhibition (SRB), UACC-257. The settings on record: 48 h drug incubation. The data set is classed as cell-based, human. Here is the method: as §1, §2, §3, §4
In a further data set the test system is OVCAR-5. Description: NCI IVCLSP growth inhibition (SRB), OVCAR-5. The data set is classed as cell-based, human. The settings on record: 48 h drug incubation. Here is the method:
as §1, §2, §3, §4

The test system of a further data set is 786-0. The experiment in a line: NCI IVCLSP growth inhibition (SRB), 786-0. The settings on record: 48 h drug incubation. The data set is classed as cell-based, human. The procedure: as §1, §2, §3, §4
For the next data set, the system named is HT29. The experiment in a line: NCI IVCLSP growth inhibition (SRB), HT29. In kind it is cell-based, human. The settings on record: 48 h drug incubation. Here is the method:
as §1, §2, §3, §4

For a further data set, the system named is SNB-75. The experiment in a line: NCI IVCLSP growth inhibition (SRB), SNB-75. In kind it is cell-based, human. Particulars: 48 h drug incubation. The procedure: as §1, §2, §3, §4
The subject of another data set is BT-549. The experiment in a line: NCI IVCLSP growth inhibition (SRB), BT-549. In kind it is cell-based, human. Particulars: 48 h drug incubation. The procedure:
as §1, §2, §3, §4

The test system of data set [1] is NCI 60 human tumor cell lines. Description: NCI IVCLSP growth inhibition, whole panel (text summaries). In kind it is cell-based. Here is the method:
as §1
Compounds 1-9 were tested according to the NCI Developmental Therapeutics Program (DTP) In Vitro Cell Line Screening Project (IVCLSP). […] Methodology for testing under the IVCLSP is as follows: The human tumor cell lines of the cancer screening panel are grown in RPMI 1640 medium containing 5% fetal bovine serum and 2 mM L-glutamine. For a typical screening experiment, cells are inoculated into 96 well microtiter plates in 100 μL at plating densities ranging from 5,000 to 40,000 cells/well depending on the doubling time of individual cell lines. After cell inoculation, the microtiter plates are incubated at 37° C., 5% CO2, 95% air and 100% relative humidity for 24 h prior to addition of experimental drugs.
After 24 h, two plates of each cell line are fixed in situ with TCA, to represent a measurement of the cell population for each cell line at the time of drug addition (Tz). Experimental drugs are solubilized in dimethyl sulfoxide at 400-fold the desired final maximum test concentration and stored frozen prior to use. At the time of drug addition, an aliquot of frozen concentrate is thawed and diluted to twice the desired final maximum test concentration with complete medium containing 50 μg/ml gentamicin. Additional four, 10-fold or ½ log serial dilutions are made to provide a total of five drug concentrations plus control. Aliquots of 100 μl of these different drug dilutions are added to the appropriate microtiter wells already containing 100 μl of medium, resulting in the required final drug concentrations.
Following drug addition, the plates are incubated for an additional 48 h at 37° C., 5% CO2, 95% air, and 100% relative humidity. For adherent cells, the assay is terminated by the addition of cold TCA. Cells are fixed in situ by the gentle addition of 50 μl of cold 50% (w/v) TCA (final concentration, 10% TCA) and incubated for 60 minutes at 4° C. The supernatant is discarded, and the plates are washed five times with tap water and air dried. Sulforhodamine B (SRB) solution (100 μl) at 0.4% (w/v) in 1% acetic acid is added to each well, and plates are incubated for 10 minutes at room temperature. After staining, unbound dye is removed by washing five times with 1% acetic acid and the plates are air dried. Bound stain is subsequently solubilized with 10 mM trizma base, and the absorbance is read on an automated plate reader at a wavelength of 515 nm. For suspension cells, the methodology is the same except that the assay is terminated by fixing settled cells at the bottom of the wells by gently adding 50 μl of 80% TCA (final concentration, 16% TCA). Using the seven absorbance measurements [time zero, (Tz), control growth, (C), and test growth in the presence of drug at the five concentration levels (Ti)], the percentage growth is calculated at each of the drug concentrations levels. Percentage growth inhibition is calculated as: [(Ti−Tz)/(C−Tz)]×100 for concentrations for which Ti>/=Tz [(Ti−Tz)/Tz]×100 for concentrations for which Ti<Tz.
Three dose response parameters are calculated for each experimental agent. […] The drug concentration resulting in total growth inhibition (TGI) is calculated from Ti=Tz. […]

The subject of data set [2] is T24 human bladder carcinoma cells. The experiment in a line: Cytotoxicity, T24 cells. The data set is classed as cell-based. Particulars: mean ± SEM for 3 experiments.
In another data set the target is T1, P-glycoprotein (Homo sapiens, UniProt P08183).
T1 construct: NCI/ADR cells that overexpress P-glycoprotein; endogenous in cells; host or cells: NCI/ADR cells
T1 sequence (P08183 whole entry): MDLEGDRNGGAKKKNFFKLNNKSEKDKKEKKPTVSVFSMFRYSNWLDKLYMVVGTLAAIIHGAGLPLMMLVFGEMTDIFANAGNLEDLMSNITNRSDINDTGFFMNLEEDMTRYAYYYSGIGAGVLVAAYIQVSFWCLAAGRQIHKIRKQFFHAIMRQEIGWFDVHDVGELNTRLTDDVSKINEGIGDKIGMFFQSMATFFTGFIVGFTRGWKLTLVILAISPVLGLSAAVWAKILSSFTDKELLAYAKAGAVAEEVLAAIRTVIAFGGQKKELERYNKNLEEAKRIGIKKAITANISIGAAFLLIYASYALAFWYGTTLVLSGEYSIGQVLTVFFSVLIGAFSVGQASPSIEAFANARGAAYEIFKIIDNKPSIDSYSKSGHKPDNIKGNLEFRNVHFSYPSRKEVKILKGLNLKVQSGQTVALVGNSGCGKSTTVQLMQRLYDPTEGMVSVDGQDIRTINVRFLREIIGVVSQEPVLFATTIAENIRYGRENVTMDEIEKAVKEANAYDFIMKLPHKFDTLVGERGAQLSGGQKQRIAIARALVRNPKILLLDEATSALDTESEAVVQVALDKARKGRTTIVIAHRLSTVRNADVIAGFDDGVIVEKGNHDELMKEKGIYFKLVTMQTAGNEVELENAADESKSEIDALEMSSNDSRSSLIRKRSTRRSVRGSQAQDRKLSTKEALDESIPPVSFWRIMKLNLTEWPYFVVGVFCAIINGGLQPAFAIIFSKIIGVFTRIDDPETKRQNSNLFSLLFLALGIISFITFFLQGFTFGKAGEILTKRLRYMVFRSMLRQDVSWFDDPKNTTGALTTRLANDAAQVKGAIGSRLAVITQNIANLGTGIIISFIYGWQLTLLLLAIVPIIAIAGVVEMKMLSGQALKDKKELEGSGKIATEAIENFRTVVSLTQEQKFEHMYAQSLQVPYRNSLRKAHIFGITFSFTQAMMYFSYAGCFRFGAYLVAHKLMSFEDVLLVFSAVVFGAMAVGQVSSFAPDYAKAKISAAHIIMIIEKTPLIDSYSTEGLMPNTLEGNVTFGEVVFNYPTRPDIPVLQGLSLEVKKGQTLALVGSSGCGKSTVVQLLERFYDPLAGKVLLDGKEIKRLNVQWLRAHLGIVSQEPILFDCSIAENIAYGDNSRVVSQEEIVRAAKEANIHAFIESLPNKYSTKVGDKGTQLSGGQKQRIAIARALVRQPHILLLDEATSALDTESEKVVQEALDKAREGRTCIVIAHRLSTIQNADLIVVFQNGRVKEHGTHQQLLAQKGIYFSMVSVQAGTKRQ
Description: P-glycoprotein antagonism: sensitivity of NCI/ADR cells to vinblastine. In kind it is cell-based. Particulars: absence or presence of 50 nM vinblastine. An excerpt: To determine if this is due to inhibition of drug transport activity by these proteins, the effects of these compounds on P-glycoprotein were further characterized. The effects of the compounds on the sensitivity of NCI/ADR cells to vinblastine and of MCF-7/VP cells to vincristine were examined to evaluate antagonism of P-glycoprotein and MRP1, respectively. FIGS. 4a-b present graphs of antagonism score versus concentration for P-glycoprotein and MRP1, respectively.
The Pgp antagonism score is calculated as the percentage survival of cells in the absence of vinblastine/percentage survival in the presence of vinblastine. […] The MRP1 antagonism score is calculated as the percentage survival of cells in the absence of vincristine/percentage survival in the presence of vincristine. […] Concentrations of Compounds 1-5 above their IC50 toward MCF-7 cells are not indicated. Data for one of three similar experiments is shown.

The next data set relates to MCF-7/VP cells. The experiment in a line: Cytotoxicity, MCF-7/VP cells that overexpress MRP1. The settings on record: for IC50: mean ± SEM for 3 experiments.
Data set [3] has as its system T24, MCF-7, NCI/ADR, MCF-7/VP. Description: Cytotoxicity, panel of human tumor cell lines of Table 3 (text summaries).
Description: (§5) These cell lines are resistant to anticancer drugs due to overexpression of the transport proteins P-glycoprotein or MRP1.

Entries after “also recorded” stand apart in the source; their conditions may differ. Like-named read-outs stand apart in the source and are kept apart here.

Description for MCF-7/VP cells: as §5

By GI50 is commonly meant the concentration at which growth is held to half of that of the control. As for `COc1cc(CCc2cn(Cc3ccccc3)c3nc(N)nc(C)c23)cc(OC)c1OC` [Compound 1], the GI50 with HL-60(TB) was found to be 64.7 nM; with K-562, 84.6 nM; with A549/ATCC, 173 nM; in the data set with NCI-H226, 195 nM; in the data set with NCI-H460 it was 162 nM; in the data set with SK-MEL-5, 61.1 nM. In addition, the concentration for 50% growth inhibition (GI50) is 80.2 nM in the data set with UACC-257; more than 1000 nM in the data set with OVCAR-5; 254 nM in the data set on 786-0; 281 nM in the data set on HT29; 358 nM in the data set on SNB-75; more than 1000 nM in the data set with BT-549. Besides, the “GI50 values, level across the tumor cell lines (in words)” value in data set [1] (NCI 60 tumor panel) is recorded as “nanomolar to submicromolar levels; also recorded: single or two digit nanomolar levels against 16 tumor cell lines; also recorded: submicromolar levels against 40 tumor cell lines; also recorded: micromolar levels against 3 tumor cell lines”. Besides, in [1] (requirement for a microtubule-targeting agent, satisfied), the “average GI50” value is listed as “one μM or less”. The IC50 in data set [2] was found to be 280 ± 100 nM; in the data set with MCF-7/VP cells (read-out: Cytotoxicity IC50, MCF-7/VP) it was 250 ± 160 nM; in the data set with MCF-7/VP cells (read-out: drug sensitivity (IC50), MCF-7/VP, Table 4, MRP1 overexpressing), 180 ± 10 nM. The “effect on P-glycoprotein-mediated resistance (in words)” value on P-glycoprotein is “no affect on P-glycoprotein at doses below its IC50”. Moreover, in the data set on MCF-7/VP cells (MRP1), the “Resistance (MCF-7/VP relative to MCF-7)” value was determined as 0.6. In data set [3], the “cytotoxic potency, better than Compound 4 (2-OMe)” value worked out at 10 fold. Moreover, the “effect of P-glycoprotein / MRP1 overexpression on cell sensitivity (in words)” value in data set [3] is listed as “neither P-glycoprotein nor MRP1 affect cell sensitivity”. Further, in data set [3] (all tested cell lines), the “cytotoxic potency (in words)” value is “Submicromolar cytotoxic potency”.

For the origin of these results see patent US8501752B2, “Methods for treating cancer and other pathological proliferating disorders by inhibiting mitosis using pyrrolo[2,3-d]pyrimidines” (Duquesne University of the Holy Ghost, priority 2005, dated 2013).
